One test relates to PCP-treated rats. Put plainly: novel object recognition test in sub-chronic PCP treated rats. It is filed as in vivo, rat. As to the method: Female hooded-Lister rats were used for this experiment. Rats were housed in groups of 5 under standard laboratory conditions under a 12 hr light: dark cycle, lights on at 0700 hr. Testing was carried out in the light phase.
Rats were randomly assigned to two treatment groups and treated with vehicle, n=20 (distilled water, i.p.) or Phencyclidine hydrochloride (PCP), n=100 (2 mg/kg, i.p. twice daily for 7-days). PCP was dissolved in distilled water. This was followed by a 7-day wash out period before the rats were tested following acute treatment with CBDV, risperidone or vehicle.
Risperidone (0.1 mg/kg) was dissolved in a minimum volume of acetic acid, made up to volume with distilled water and pH adjusted to 6 with 0.1M NaOH and administered via the i.p. route in a volume of 1 ml/kg, 60 min prior to testing.
CBDV at 2, 10 or 20 mg/kg was dissolved in 2:1:17 (Ethanol:Cremofor:Saline 0.9%) and administered via the i.p. route in a volume of 5 ml/kg, 60 min prior to testing.
Rats were allowed to habituate to the empty test box and the behavioural test room environment for 1 h on day 1. Prior to behavioural testing on day 2 rats are given a further 3 min habituation.
Following the 3 min habituation period, the rats are given two 3 min trials (T1 and T2) which are separated by a 1 min inter-trial interval in the home cage during which the objects are changed. Behaviour in all trials was recorded on video for subsequent blind scoring.
In this trial, the animals are allowed to explore two identical objects (A1 and A2) for 3 min.
In this trial, the animals explore a familiar object (A) from T1 and a novel object (B) for 3 min. The familiar object presented during T2 is a duplicate of the object presented in T1 in order to avoid any olfactory trails.
The object exploration is defined by animals licking, sniffing or touching the object with the forepaws whilst sniffing, but not leaning against, turning around, standing or sitting on the object. The exploration time (s) of each object (A, B, familiar and novel) in each trial are recorded using two stopwatches and the following factors are calculated: • Total exploration time of both objects in the acquisition trial (s). • Total exploration time of both objects in the retention trial (s). • Habituation of exploratory activity includes the exploration time, as measured by the number of lines crossed, for both the trials. • Discrimination index (DI), which is calculated as shown below: […]

The subject of the next test is Ube3am-/p+ (AS) mice. Put plainly: audiogenic seizure susceptibility in Angelman syndrome mice. The test is classed as in vivo, mouse. To be noted: for mice experiencing seizures: baseline 100%. How it is done: Heterozygous mice with maternal deficiency of Ube3A (Ube3am−/p+) and wild type (Ube3am+/p+) were purchased from The Jackson Laboratory (Jackson code: B6.12957-Ube3a tm1Alb/J) and maintained in a C57BL/6 background.
For the audiogenic seizure tests CBDV was administered at 20, 200 and 400 mg/kg.
Seizure susceptibility: Audiogenic seizures were induced by vigorously scraping scissors across the metal grating of the cage lid which produces a 100 DB high frequency loud noise. This was done for 20 seconds. This test consists of 3 phases. In phase 1 all mice were tested for epilepsy. In phase 2 all mice were injected daily with either vehicle or a drug for 7 or 10 days. In phase 3 mice were tested for epilepsy (one hour after last injection).

For a further test, the system named is animal models of seizure. The note with it: in vivo; cited from earlier work.

`C=C(C)[C@@H]1CCC(C)=C[C@H]1c1c(O)cc(CCC)cc1O` [CBDV, Cannabidivarin]: in the test on PCP-treated rats (PCP rats, 10 and 20 mg/kg), the “discrimination index (DI)” value is reported as “statistically significant increase”. Also, the “preference between two identical objects, Trial 1 (acquisition)” value in the test on PCP-treated rats (PCP rats, CBDV 2, 10 or 20 mg/kg i.p., risperidone 0.1 mg/kg i.p., 60 min prior to testing) is on record as “no real preference”. Further, the “cognitive dysfunction (discrimination between familiar and novel objects, Trial 2)” value in the test with PCP-treated rats (PCP treated rats, CBDV 10 and 20 mg/kg i.p.) is “reverse”. The seizure susceptibility result with Ube3am-/p+ (AS) mice (AS mice, 20 mg/kg or 200 mg/kg, 7 or 10 days treatment) is on record as “no effect”. The “number of mice with seizures” value with Ube3am-/p+ (AS) mice (AS mice, 400 mg/kg) is on record as “statistically significant decrease”. For the same compound, the mice experiencing seizures is 60% in the test on Ube3am-/p+ (AS) mice (AS mice, 400 mg/kg, after 7 days treatment) and 30% in the test with Ube3am-/p+ (AS) mice (AS mice, 400 mg/kg, after 10 days treatment). Also, the “reduction of seizure susceptibility” value in the test with Ube3am-/p+ (AS) mice (Angelman mice, 400 mg/kg, after 10 days treatment) stood at 70%. In the test with animal models of seizure, the “effect in animal models of seizure” value is recorded as “effective”.

Source of the values: patent US20190070128A1, “USE OF CANNABIDIVARIN IN THE TREATMENT OF AUTISM SPECTRUM DISORDER, ASSOCIATED DISORDERS AND SCHIZOPHRENIA” (GW Research Limited, priority 2016, published 2019).
